The target of one experiment is Cathepsin B (Homo sapiens, UniProt P07858). Put plainly: In vitro Inhibitory activity against Cathepsin B cysteine protease by using Cbz-Phe-Arg-AMC.
The target of the next experiment is T1, Cathepsin K (Homo sapiens, UniProt P43235).
T1 sequence (P43235 whole entry): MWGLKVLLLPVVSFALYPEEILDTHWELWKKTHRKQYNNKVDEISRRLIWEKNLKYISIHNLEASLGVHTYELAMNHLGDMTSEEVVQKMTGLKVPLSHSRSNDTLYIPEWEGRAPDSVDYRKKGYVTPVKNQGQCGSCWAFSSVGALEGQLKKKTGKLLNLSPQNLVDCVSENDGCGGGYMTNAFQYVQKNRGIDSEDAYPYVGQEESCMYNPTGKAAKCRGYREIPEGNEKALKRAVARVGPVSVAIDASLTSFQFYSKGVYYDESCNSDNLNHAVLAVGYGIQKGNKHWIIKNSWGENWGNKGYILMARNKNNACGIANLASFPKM
Put plainly: In vitro Inhibitory activity against Cathepsin K cysteine protease by using Cbz-Phe-Arg-AMC.

For the next experiment, the target named is T2, Procathepsin L (Rattus norvegicus, UniProt P07154).
T2 sequence (P07154 whole entry): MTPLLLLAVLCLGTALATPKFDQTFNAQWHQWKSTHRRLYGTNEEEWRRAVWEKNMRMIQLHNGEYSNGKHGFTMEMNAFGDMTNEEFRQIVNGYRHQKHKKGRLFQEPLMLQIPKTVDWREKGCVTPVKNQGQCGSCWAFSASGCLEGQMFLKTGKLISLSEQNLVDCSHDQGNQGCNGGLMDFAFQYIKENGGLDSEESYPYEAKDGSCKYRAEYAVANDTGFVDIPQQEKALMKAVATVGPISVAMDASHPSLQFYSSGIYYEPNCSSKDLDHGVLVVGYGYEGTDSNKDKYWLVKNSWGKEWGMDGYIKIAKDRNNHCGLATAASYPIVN
The experiment can be described thus: In vitro Inhibitory activity against Cathepsin L cysteine protease by using Cbz-Phe-Arg-AMC.

Another experiment addresses Cathepsin S (Homo sapiens, UniProt P25774). Put plainly: In vitro Inhibitory activity against Cathepsin S cysteine protease by using Cbz-Val-Val-Arg-AMC.

The structures appear in SMILES notation.

Cathepsin S, sequence (P25774 whole entry): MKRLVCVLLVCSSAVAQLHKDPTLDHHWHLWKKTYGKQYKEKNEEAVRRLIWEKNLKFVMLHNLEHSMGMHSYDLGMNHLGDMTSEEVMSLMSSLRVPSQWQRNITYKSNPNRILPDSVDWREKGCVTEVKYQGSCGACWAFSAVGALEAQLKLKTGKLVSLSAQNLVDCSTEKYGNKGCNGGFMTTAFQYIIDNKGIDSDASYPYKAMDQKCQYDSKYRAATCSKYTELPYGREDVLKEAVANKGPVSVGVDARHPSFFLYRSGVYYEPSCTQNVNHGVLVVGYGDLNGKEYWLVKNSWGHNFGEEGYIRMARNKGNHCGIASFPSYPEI

As to `O=C(N[C@@H](Cc1ccccc1)C(=O)N[C@@H]1C(=O)N2CCO[C@H]12)OCc1ccccc1`, the IC50 came out at 1.76 µM against Cathepsin B, 1.63 µM on Cathepsin K, 0.085 µM on Procathepsin L and 0.43 µM against Cathepsin S.
As for `O=C(N[C@@H](Cc1ccccc1)C(=O)N[C@@H]1C(=O)N2CCO[C@@H]12)OCc1ccccc1`, the IC50 against Cathepsin B came out at 12.2 µM; on Cathepsin K it was 0.005 µM; on Procathepsin L, 0.004 µM; against Cathepsin S, 0.077 µM.
Regarding `O=C(N[C@H](C(=O)N[C@@H]1C(=O)N2CCO[C@H]12)c1ccccc1)OCc1ccccc1`, the IC50 against Cathepsin B was above 50 µM; on Procathepsin L, 1.83 µM.
Turning to `CC(C)[C@H](NC(=O)OCc1ccccc1)C(=O)N[C@@H]1C(=O)N2CCO[C@H]12`, the IC50 on Cathepsin B stood at 30 µM; at Cathepsin K it was 0.1 µM; on Procathepsin L it was 0.6 µM; against Cathepsin S, 0.26 µM.
With `C[C@H](NC(=O)OCc1ccccc1)C(=O)N[C@@H]1C(=O)N2CCO[C@H]12`, the IC50 was above 50 µM at Cathepsin B, above 2.5 µM against Cathepsin K, 38 µM against Procathepsin L and above 2.5 µM at Cathepsin S.

The record behind these values is ChEMBL document CHEMBL1134985, “Design and synthesis of 6-substituted amino-4-oxa-1-azabicyclo[3,2,0]heptan-7-one derivatives as cysteine proteases inhibitors” (Bioorg Med Chem Lett, 2002).
